Consider 6 molecules from BindingDB's records for doi:10.1016/j.bioorg.2016.11.007 (University of Karachi, 2017).

In experiment [1] the target is T1, Thymidine phosphorylase (Escherichia coli (strain K12), UniProt P07650). Description: Thymidine Phosphorylase Inhibition Assay. The note with it: 30 °C. As for the experimental part:
TP inhibition assay was performed spectrophotometrically in 96-well plate. […] The total reaction volume was 200 μL. 20 μL of TP enzyme (0.058 unit/well) was incubated with 10 μL of test compounds (0.5 mM) for 10 min at 30 C. […] Every experiment was run in triplicate.

Experiment [2] deals with T1, Thymidine phosphorylase. Briefly: Kinetic Assay. The note with it: 30 °C.

T1 sequence (P07650 whole entry): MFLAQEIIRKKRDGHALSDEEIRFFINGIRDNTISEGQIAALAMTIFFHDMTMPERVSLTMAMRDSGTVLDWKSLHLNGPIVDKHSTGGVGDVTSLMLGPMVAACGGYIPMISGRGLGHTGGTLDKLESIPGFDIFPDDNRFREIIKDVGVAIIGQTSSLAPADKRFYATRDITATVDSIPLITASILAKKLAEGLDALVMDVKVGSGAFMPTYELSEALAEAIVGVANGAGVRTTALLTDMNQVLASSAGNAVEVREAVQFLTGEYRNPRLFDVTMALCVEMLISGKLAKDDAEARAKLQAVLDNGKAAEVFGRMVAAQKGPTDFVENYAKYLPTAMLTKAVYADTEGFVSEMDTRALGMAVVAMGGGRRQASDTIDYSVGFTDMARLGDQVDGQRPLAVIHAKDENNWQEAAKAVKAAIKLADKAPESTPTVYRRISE

For `Cc1cn([C@H]2C[C@H](OC(=O)c3ccc(Cl)cc3Cl)[C@@H](COC(=O)c3ccc(Cl)cc3Cl)O2)c(=O)[nH]c1=O` [5'-O-(2'',4''-Dichlorobenzoyl)-thymidine-3'-O-2'',4''-dichlorobenzoate (13)], in experiment [1], half-maximal inhibition (IC50) required 146 µM. Same read-out and setting: for `COc1ccccc1C(=O)OC[C@H]1O[C@@H](n2cc(C)c(=O)[nH]c2=O)C[C@@H]1O` [5'-O-(2''-Methoxybenzoyl)-thymidine (11)] the value was 90 µM. For the molecule `Cc1cn([C@H]2C[C@H](O)[C@@H](COC(=O)c3cccc(Br)c3)O2)c(=O)[nH]c1=O` [5'-O-(3''-Bromobenzoyl)-thymidine (15)], in experiment [2], the inhibition constant Ki was found to be 11.4 µM. Also, the IC50 in experiment [1] worked out at 33.3 µM. For `Cc1cn([C@H]2C[C@H](OC(=O)c3ccc(Br)cc3)[C@@H](COC(=O)c3ccc(Br)cc3)O2)c(=O)[nH]c1=O` [5'-O-(4''-Bromobenzoyl)-thymidine-3'-O-4''-bromobenzoate (14)], in that order: 7.81 µM and 7.5 µM.

On to `COc1ccc(C(=O)OC[C@H]2O[C@@H](n3cc(C)c(=O)[nH]c3=O)C[C@@H]2O)cc1` [5'-O-(4''-Methoxybenzoyl)-thymidine (10)], for which the Ki in experiment [2] was 12.8 µM. In experiment [1], inhibition was half-maximal at 18.8 µM (IC50).

Take `Cc1ccc(C(=O)OC[C@H]2O[C@@H](n3cc(C)c(=O)[nH]c3=O)C[C@@H]2O)cc1` [5'-O-(4''-Methylbenzoyl)-thymidine (4)]: the inhibition constant Ki in experiment [2] turned out to be 12.5 µM. Moreover, the IC50 in experiment [1] worked out at 18.5 µM.
